Measured values: PubChem BioAssay (NCI)
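GI50: concentration for 50% inhibition of growth. TGI is the concentration that stops growth completely.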

Columns and labels:
Assay in all cases: NCI tumour cell line growth inhibition, 384-well format
A498 renal = tested on: A498 renal
HCT-116 colon = tested on: HCT-116 colon
SK-MEL-28 melanoma = tested on: SK-MEL-28 melanoma
M14 melanoma = tested on: M14 melanoma
HOP-92 NSCLC = tested on: HOP-92 NSCLC
MALME-3M melanoma = tested on: MALME-3M melanoma
SW-620 colon = tested on: SW-620 colon
SF-268 CNS = tested on: SF-268 CNS
K-562 leukemia = tested on: K-562 leukemia
SK-OV-3 ovarian = tested on: SK-OV-3 ovarian
NCI-H322M lung = tested on: NCI-H322M lung
U251 glioblastoma = tested on: U251 glioblastoma
HCT-15 colon = tested on: HCT-15 colon
786-0 renal = tested on: 786-0 renal
HCC-2998 colon = tested on: HCC-2998 colon
A549 NSCLC = tested on: A549 NSCLC
UACC-257 melanoma = tested on: UACC-257 melanoma
LOX IMVI melanoma = tested on: LOX IMVI melanoma
NCI-H460 NSCLC = tested on: NCI-H460 NSCLC
ACHN renal = tested on: ACHN renal
NCI/ADR-RES ovarian = tested on: NCI/ADR-RES ovarian
COLO 205 colon = tested on: COLO 205 colon
IGROV1 ovarian = tested on: IGROV1 ovarian
T-47D breast = tested on: T-47D breast
OVCAR-8 ovarian = tested on: OVCAR-8 ovarian
EKVX NSCLC = tested on: EKVX NSCLC
MDA-MB-468 breast = tested on: MDA-MB-468 breast
HL-60(TB) leukemia = tested on: HL-60(TB) leukemia
SN12C renal = tested on: SN12C renal
RXF 393 renal = tested on: RXF 393 renal
NCI-H23 lung = tested on: NCI-H23 lung
UACC-62 melanoma = tested on: UACC-62 melanoma
MDA-MB-231 breast = tested on: MDA-MB-231 breast
NCI-H226 lung = tested on: NCI-H226 lung
SF-295 CNS = tested on: SF-295 CNS
UO-31 renal = tested on: UO-31 renal
MCF7 breast = tested on: MCF7 breast
OVCAR-5 ovarian = tested on: OVCAR-5 ovarian
DU-145 prostate = tested on: DU-145 prostate
TK-10 renal = tested on: TK-10 renal
MDA-MB-435 melanoma = tested on: MDA-MB-435 melanoma
CCRF-CEM leukemia = tested on: CCRF-CEM leukemia
CAKI-1 renal = tested on: CAKI-1 renal
HS 578T breast = tested on: HS 578T breast
OVCAR-3 ovarian = tested on: OVCAR-3 ovarian
HT29 colon = tested on: HT29 colon
SF-539 CNS = tested on: SF-539 CNS
BT-549 breast = tested on: BT-549 breast
NCI-H522 lung = tested on: NCI-H522 lung
PC-3 prostate = tested on: PC-3 prostate
KM12 colon = tested on: KM12 colon
OVCAR-4 ovarian = tested on: OVCAR-4 ovarian
SK-MEL-2 melanoma = tested on: SK-MEL-2 melanoma
MOLT-4 leukemia = tested on: MOLT-4 leukemia
SNB-19 CNS = tested on: SNB-19 CNS
SK-MEL-5 melanoma = tested on: SK-MEL-5 melanoma
HOP-62 NSCLC = tested on: HOP-62 NSCLC
RPMI-8226 leukemia = tested on: RPMI-8226 leukemia
SNB-75 CNS = tested on: SNB-75 CNS

`Nc1ncnc2c1c(-c1cccc(OCc3ccccc3)c1)cn2C1CC(CN2CCCC2)C1` (stereo not drawn) showed a GI50 (A498 renal) of 1730 nM, a TGI (A498 renal) of 3300 nM and a GI50 (HCT-116 colon) of 1560 nM. For the same molecule, the TGI (HCT-116 colon) was 2990 nM, the GI50 (SK-MEL-28 melanoma) was 1570 nM and the TGI (SK-MEL-28 melanoma) was 2920 nM. The GI50 (M14 melanoma) was 1400 nM, the TGI (M14 melanoma) was 2720 nM and the GI50 (HOP-92 NSCLC) was 1460 nM. The TGI (HOP-92 NSCLC) was 2820 nM, the GI50 (MALME-3M melanoma) was 1250 nM and the TGI (MALME-3M melanoma) was 2520 nM. The GI50 (SW-620 colon) was 1410 nM, the TGI (SW-620 colon) was 2960 nM and the GI50 (SF-268 CNS) was 1760 nM. The TGI (SF-268 CNS) was 3190 nM, the GI50 (K-562 leukemia) was 1560 nM and the TGI (K-562 leukemia) was 2950 nM. The GI50 (SK-OV-3 ovarian) was 1740 nM, the TGI (SK-OV-3 ovarian) was 3290 nM and the GI50 (NCI-H322M lung) was 1860 nM. The TGI (NCI-H322M lung) was 4940 nM, the GI50 (U251 glioblastoma) was 1890 nM and the TGI (U251 glioblastoma) was 3380 nM. It also gave a GI50 (HCT-15 colon) of 1570 nM, a TGI (HCT-15 colon) of 3280 nM and a GI50 ([…]-0 renal) of 1690 nM. The TGI (786-0 renal) was 3080 nM, the GI50 (HCC-2998 colon) was 1290 nM and the TGI (HCC-2998 colon) was 2630 nM. For the same molecule, the GI50 (A549 NSCLC) was 1670 nM, the TGI (A549 NSCLC) was 3410 nM and the GI50 (UACC-257 melanoma) was 1480 nM. It also gave a TGI (UACC-257 melanoma) of 2810 nM, a GI50 (LOX IMVI melanoma) of 1670 nM and a TGI (LOX IMVI melanoma) of 3050 nM. It also gave a GI50 (NCI-H460 NSCLC) of 1320 nM, a TGI (NCI-H460 NSCLC) of 2750 nM and a GI50 (ACHN renal) of 2040 nM. It also gave a TGI (ACHN renal) of 4450 nM, a GI50 (NCI/ADR-RES ovarian) of 2290 nM and a TGI (NCI/ADR-RES ovarian) of 6640 nM. The GI50 (COLO 205 colon) was 442 nM, the TGI (COLO 205 colon) was 1640 nM and the GI50 (IGROV1 ovarian) was 3460 nM. For the same molecule, the TGI (IGROV1 ovarian) was 12300 nM, the GI50 (T-47D breast) was 1540 nM and the TGI (T-47D breast) was 3040 nM. It also gave a GI50 (OVCAR-8 ovarian) of 1790 nM, a TGI (OVCAR-8 ovarian) of 3510 nM and a GI50 (EKVX NSCLC) of 1360 nM. It also gave a TGI (EKVX NSCLC) of 3740 nM, a GI50 (MDA-MB-468 breast) of 1520 nM and a TGI (MDA-MB-468 breast) of 2970 nM. For the same molecule, the GI50 (HL-60(TB) leukemia) was 324 nM, the TGI (HL-60(TB) leukemia) was 1050 nM and the GI50 (SN12C renal) was 1770 nM. For the same molecule, the TGI (SN12C renal) was 3420 nM, the GI50 (RXF 393 renal) was 1480 nM and the TGI (RXF 393 renal) was 2830 nM. For the same molecule, the GI50 (NCI-H23 lung) was 1380 nM, the TGI (NCI-H23 lung) was 3560 nM and the GI50 (UACC-62 melanoma) was 1690 nM. It also gave a TGI (UACC-62 melanoma) of 3070 nM, a GI50 (MDA-MB-231 breast) of 2050 nM and a TGI (MDA-MB-231 breast) of 4560 nM. It also gave a GI50 (NCI-H226 lung) of 1470 nM, a TGI (NCI-H226 lung) of 4310 nM and a GI50 (SF-295 CNS) of 1760 nM. It also gave a TGI (SF-295 CNS) of 3220 nM, a GI50 (UO-31 renal) of 1520 nM and a TGI (UO-31 renal) of 2880 nM. The GI50 (MCF7 breast) was 353 nM, the TGI (MCF7 breast) was 1690 nM and the GI50 (OVCAR-5 ovarian) was 1520 nM. It also gave a TGI (OVCAR-5 ovarian) of 3810 nM, a GI50 (DU-145 prostate) of 3020 nM and a TGI (DU-145 prostate) of 11900 nM. For the same molecule, the GI50 (TK-10 renal) was 1600 nM, the TGI (TK-10 renal) was 3170 nM and the GI50 (MDA-MB-435 melanoma) was 1490 nM. It also gave a TGI (MDA-MB-435 melanoma) of 2840 nM, a GI50 (CCRF-CEM leukemia) of 1850 nM and a TGI (CCRF-CEM leukemia) of 3260 nM. For the same molecule, the GI50 (CAKI-1 renal) was 1660 nM, the TGI (CAKI-1 renal) was 3220 nM and the GI50 (HS 578T breast) was 1580 nM. It also gave a TGI (HS 578T breast) of 2950 nM, a GI50 (OVCAR-3 ovarian) of 1740 nM and a TGI (OVCAR-3 ovarian) of 3430 nM. For the same molecule, the GI50 (HT29 colon) was 769 nM, the TGI (HT29 colon) was 2060 nM and the GI50 (SF-539 CNS) was 1800 nM. It also gave a TGI (SF-539 CNS) of 3210 nM, a GI50 (BT-549 breast) of 1550 nM and a TGI (BT-549 breast) of 2980 nM. It also gave a GI50 (NCI-H522 lung) of 1900 nM, a TGI (NCI-H522 lung) of 3500 nM and a GI50 (PC-3 prostate) of 1780 nM. It also gave a TGI (PC-3 prostate) of 3510 nM, a GI50 (KM12 colon) of 1910 nM and a TGI (KM12 colon) of 4160 nM. The GI50 (OVCAR-4 ovarian) was 2030 nM, the TGI (OVCAR-4 ovarian) was 5180 nM and the GI50 (SK-MEL-2 melanoma) was 1060 nM. For the same molecule, the TGI (SK-MEL-2 melanoma) was 2260 nM, the GI50 (MOLT-4 leukemia) was 1780 nM and the TGI (MOLT-4 leukemia) was 3170 nM. It also gave a GI50 (SNB-19 CNS) of 3000 nM, a TGI (SNB-19 CNS) of 8690 nM and a GI50 (SK-MEL-5 melanoma) of 1200 nM. It also gave a TGI (SK-MEL-5 melanoma) of 2450 nM, a GI50 (HOP-62 NSCLC) of 1870 nM and a TGI (HOP-62 NSCLC) of 3490 nM. For the same molecule, the GI50 (RPMI-8226 leukemia) was 1720 nM, the TGI (RPMI-8226 leukemia) was 3110 nM and the GI50 (SNB-75 CNS) was 1900 nM. It also gave a TGI (SNB-75 CNS) of 3340 nM.
